Test results: PubChem BioAssay AID1259411 (Chemical Carcinogenesis Research Information System (CCRIS), 2018)
Active and inactive are the calls of the source. How the calls were made is not given here.

Test system: rodent carcinogenicity bioassays, tumor incidence
Experiment: CCRIS carcinogenicity studies
Conditions: Dose: 0, Dose: 0
Procedure, shortened: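 NCI-built, expert-reviewed records of carcinogenicity and related test outcomes (mutagenicity, tumor promotion/inhibition) compiled from published and report sources, historical span 1985-2011, not updated.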

In the case of C=CCN=C=S, the carcinogen call (Species: MOUSE, Strain/Sex: B6C3F1/FEMALE, Route: GAVAGE, 12, 25 MG/KG IN CORN OIL FOR 103 WK (STUDY DURATION: 103 WK), 12, 25 MG/KG IN CORN OIL FOR 103 WK (STUDY DURATION: 103 WK)) is reported as “inactive; negative”, the carcinogen call (Species: MOUSE, Strain/Sex: B6C3F1/MALE, Route: GAVAGE, 12, 25 MG/KG IN CORN OIL FOR 103 WK (STUDY DURATION: 103 WK), 12, 25 MG/KG IN CORN OIL FOR 103 WK (STUDY DURATION: 103 WK)) is reported as “inactive; negative” and the carcinogen call (Species: RAT, Strain/Sex: F344/FEMALE, Route: GAVAGE, 12, 25 MG/KG IN CORN OIL FOR 103 WK (STUDY DURATION: 103 WK), 12, 25 MG/KG IN CORN OIL FOR 103 WK (STUDY DURATION: 103 WK), Tumor Site: Type of Lesion: INTEGUMENTARY SYSTEM (SUBCUTANEOUS TISSUE): FIBROSARCOMA) is reported as “equivocal”. For the same compound, the carcinogen call (Species: RAT, Strain/Sex: F344/MALE, Route: GAVAGE, 12, 25 MG/KG IN CORN OIL FOR 103 WK (STUDY DURATION: 103 WK), 12, 25 MG/KG IN CORN OIL FOR 103 WK (STUDY DURATION: 103 WK), Tumor Site: Type of Lesion: URINARY BLADDER: TRANSITIONAL CELL PAPILLOMA) was “active; positive”.

For Cc1cc2c3c(cccc3c1)-c1ccccc1-2, the carcinogen call (Species: MOUSE, Strain/Sex: CD-1/FEMALE, Route: INTRAPERITONEAL, 3.46, 17.3 UMOL (TOTAL DOSE) IN DMSO ADMINISTERED ON DAYS 1,8, AND 15 OF LIFE (STUDY DURATION: 52 WK), 3.46, 17.3 UMOL (TOTAL DOSE) IN DMSO ADMINISTERED ON DAYS 1,8, AND 15 OF LIFE (STUDY DURATION: 52 WK), Tumor Site: Type of Lesion: LUNG: TUMORS, LIVER: TUMORS) was “active; positive” and the carcinogen call (Species: MOUSE, Strain/Sex: CD-1/MALE, Route: INTRAPERITONEAL, 3.46, 17.3 UMOL (TOTAL DOSE) IN DMSO ADMINISTERED ON DAYS 1,8, AND 15 OF LIFE (STUDY DURATION: 52 WK), 3.46, 17.3 UMOL (TOTAL DOSE) IN DMSO ADMINISTERED ON DAYS 1,8, AND 15 OF LIFE (STUDY DURATION: 52 WK), Tumor Site: Type of Lesion: LUNG: TUMORS, LIVER: TUMORS) was “active; positive”.

In the case of Cc1cc2c(nc1N)[nH]c1ccccc12, the carcinogen call (Species: MOUSE, Strain/Sex: CDF1/FEMALE, Route: ORAL, 0.08% IN DIET FOR UP TO 685 D (STUDY DURATION: 685 D), Tumor Site: Type of Lesion: LIVER: HEPATOCELLULAR ADENOMA OR CARCINOMA, BLOOD VESSELS: HEMANGIOENDOTHELIOMA OR HEMANGIOENDOTHELIAL SARCOMA) is reported as “active; positive”, the carcinogen call (Species: MOUSE, Strain/Sex: CDF1/MALE, Route: ORAL, 0.05% IN DIET FOR UP TO 685 D (STUDY DURATION: 685 D), Tumor Site: Type of Lesion: LIVER: HEPATOCELLULAR ADENOMA OR CARCINOMA, BLOOD VESSELS: HEMANGIOENDOTHELIOMA OR HEMANGIOENDOTHELIAL SARCOMA) is reported as “active; positive” and the carcinogen call (Species: RAT, Strain/Sex: F344/MALE, Route: ORAL, 0.01, 0.02% IN DIET FOR 100 WK (STUDY DURATION: 100 WK), 0.01, 0.02% IN DIET FOR 100 WK (STUDY DURATION: 100 WK), Tumor Site: Type of Lesion: LIVER: HEPATOCELLULAR CARCINOMA, PANCREAS: ACINAR CELL ADENOMA, SKIN (SUBCUTIS): FIBROMA, Tumor Site: Type of Lesion: LIVER: HEPATOCELLULAR CARCINOMA, PANCREAS: ACINAR CELL ADENOMA, SKIN (SUBCUTIS): FIBROMA) is reported as “active; positive”.

With O=[N+]([O-])c1ccc(NCCO)c(OCCO)c1 the carcinogen call (Species: MOUSE, Strain/Sex: B6C3F1/FEMALE, Route: ORAL, 5000, 10000 PPM IN FEED 7 D/WK FOR 104 WK (STUDY DURATION: 2 YR), 5000, 10000 PPM IN FEED 7 D/WK FOR 104 WK (STUDY DURATION: 2 YR)) was “inactive; negative”, the carcinogen call (Species: MOUSE, Strain/Sex: B6C3F1/MALE, Route: ORAL, 5000, 10000 PPM IN FEED 7 D/WK FOR 104 WK (STUDY DURATION: 2 YR), 5000, 10000 PPM IN FEED 7 D/WK FOR 104 WK (STUDY DURATION: 2 YR)) was “inactive; negative” and the carcinogen call (Species: RAT, Strain/Sex: F344/FEMALE, Route: ORAL, 5000, 10000 PPM IN FEED 7 D/WK FOR 104 WK (STUDY DURATION: 2 YR), 5000, 10000 PPM IN FEED 7 D/WK FOR 104 WK (STUDY DURATION: 2 YR)) was “inactive; negative”. For the same compound, the carcinogen call (Species: RAT, Strain/Sex: F344/MALE, Route: ORAL, 5000, 10000 PPM IN FEED 7 D/WK FOR 104 WK (STUDY DURATION: 105 WK), 5000, 10000 PPM IN FEED 7 D/WK FOR 104 WK (STUDY DURATION: 105 WK), Tumor Site: Type of Lesion: PITUITARY GLAND (PARS DISTALIS): ADENOMA) was “equivocal”.

For O=C1c2ccccc2C(=O)c2ccccc21, the carcinogen call (Species: MOUSE, Strain/Sex: B6C3F1/MALE, Route: DIET, 833, 2500, 7500 PPM FOR 2 YR (STUDY DURATION: 2 YRS), 833, 2500, 7500 PPM FOR 2 YR (STUDY DURATION: 2 YRS), Tumor Site: Type of Lesion: LIVER: HEPATOCELLULAR ADENOMA, CARCINOMA OR HEPATOBLASTOMA) was “active; positive”, the carcinogen call (Species: RAT, Strain/Sex: F344/N/MALE, Route: DIET, 469, 938, 1875, 3750 PPM FOR 2 YRS (STUDY DURATION: 2YRS), 469, 938, 1875, 3750 PPM FOR 2 YRS (STUDY DURATION: 2YRS), Tumor Site: Type of Lesion: KIDNEY: RENAL TUBULE ADENOMA OR CARCINOMA, LIVER: HEPATOCELLULAR ADENOMA) was “active; positive” and the carcinogen call (Species: RAT, Strain/Sex: F344/N/MALE, Route: DIET, 469, 938, 1875, 3750 PPM FOR 2 YRS (STUDY DURATION: 2YRS), 469, 938, 1875, 3750 PPM FOR 2 YRS (STUDY DURATION: 2YRS), Tumor Site: Type of Lesion: KIDNEY: RENAL TUBULE ADENOMA, BLADDER: PAPILLOMA) was “active; positive; no true dose response, p values = 0.01 in these 2 cases; all others no”.

For OC(Cn1cncn1)(Cn1cncn1)c1ccc(F)cc1F, the carcinogen call (Species: RAT, Strain/Sex: SPRAGUE-DAWLEY/FEMALE, Route: ORAL, 2.5, 5, 10 MG/KG IN DIET FOR 24 MO (STUDY DURATION: 24 MO), 2.5, 5, 10 MG/KG IN DIET FOR 24 MO (STUDY DURATION: 24 MO)) was “inactive; negative” and the carcinogen call (Species: RAT, Strain/Sex: SPRAGUE-DAWLEY/MALE, Route: ORAL, 2.5, 5, 10 MG/KG IN DIET FOR 24 MO (STUDY DURATION: 24 MO), 2.5, 5, 10 MG/KG IN DIET FOR 24 MO (STUDY DURATION: 24 MO), Tumor Site: Type of Lesion: LIVER: HEPATOCELLULAR ADENOMA) was “active; positive”.

In the case of COc1ccc([C@@H]2CC(=O)c3c(O)cc(O[C@@H]4O[C@H](CO[C@@H]5O[C@@H](C)[C@H](O)[C@@H](O)[C@H]5O)[C@@H](O)[C@H](O)[C@H]4O)cc3O2)cc1OC, the carcinogen call (Species: MOUSE, Strain/Sex: B6C3F1/FEMALE, Route: ORAL, 1.25, 5% IN DIET FOR 96 WK FOLLOWED BY BASAL DIET FOR AN ADDITIONAL 8 WK (STUDY DURATION: 104 WK), 1.25, 5% IN DIET FOR 96 WK FOLLOWED BY BASAL DIET FOR AN ADDITIONAL 8 WK (STUDY DURATION: 104 WK)) is reported as “inactive; negative” and the carcinogen call (Species: MOUSE, Strain/Sex: B6C3F1/MALE, Route: ORAL, 1.25, 5% IN DIET FOR 96 WK FOLLOWED BY BASAL DIET FOR AN ADDITIONAL 8 WK (STUDY DURATION: 104 WK), 1.25, 5% IN DIET FOR 96 WK FOLLOWED BY BASAL DIET FOR AN ADDITIONAL 8 WK (STUDY DURATION: 104 WK)) is reported as “inactive; negative”.
